Reference: the supplement of paper PMC13380429

Assays:
Conditions in all cases: 72 h
Calu-3 [1] = assay: cell viability relative to DMSO; higher = less toxic
Vero E6 [2] = assay: as above
U2OS [3] = assay: as above
Caco-2 [4] = assay: as above
Calu-3 [5] = assay: drug sensitivity score (DSS) for viability; higher = more toxic; extreme values may be limits of the assay
Vero E6 [6] = assay: as above
U2OS [7] = assay: as above
Caco-2 [8] = assay: as above
Calu-3 [9] = assay: relative viability EC50 (midpoint between 100% and the lowest measured viability); higher = less toxic
Vero E6 [10] = assay: as above
U2OS [11] = assay: as above
Caco-2 [12] = assay: as above
HepG2 [13] = assay: cell viability relative to DMSO; higher = less toxic
HepG2 [14] = assay: drug sensitivity score (DSS) for viability; higher = more toxic; extreme values may be limits of the assay
HepG2 [15] = assay: relative viability EC50 (midpoint between 100% and the lowest measured viability); higher = less toxic

SMILES: CC(C)(Sc1cc(C(C)(C)C)c(O)c(C(C)(C)C)c1)Sc1cc(C(C)(C)C)c(O)c(C(C)(C)C)c1 [probucol]
- cell viability (Calu-3 [1]; 1 nM): 98.6%
- cell viability (Calu-3 [1]; 10 nM): 106%
- cell viability (Calu-3 [1]; 100 nM): 99.9%
- cell viability (Calu-3 [1]; 1000 nM): 103%
- cell viability (Calu-3 [1]; 10000 nM): 96%
- cell viability (Vero E6 [2]; 1 nM): 100%
- cell viability (Vero E6 [2]; 10 nM): 101%
- cell viability (Vero E6 [2]; 100 nM): 106%
- cell viability (Vero E6 [2]; 1000 nM): 98.1%
- cell viability (Vero E6 [2]; 10000 nM): 97.8%
- cell viability (U2OS [3]; 1 nM): 104%
- cell viability (U2OS [3]; 10 nM): 96.1%
- cell viability (U2OS [3]; 100 nM): 101%
- cell viability (U2OS [3]; 1000 nM): 96.2%
- cell viability (U2OS [3]; 10000 nM): 98.7%
- cell viability (Caco-2 [4]; 1 nM): 104%
- cell viability (Caco-2 [4]; 10 nM): 96.3%
- cell viability (Caco-2 [4]; 100 nM): 106%
- cell viability (Caco-2 [4]; 1000 nM): 102%
- cell viability (Caco-2 [4]; 10000 nM): 102%
- drug sensitivity score (Calu-3 [5]): 0
- drug sensitivity score (Vero E6 [6]): 0
- drug sensitivity score (U2OS [7]): 0
- drug sensitivity score (Caco-2 [8]): 0
- relative viability EC50 (Calu-3 [9]): > 10 µM
- relative viability EC50 (Vero E6 [10]): > 10 µM
- relative viability EC50 (U2OS [11]): > 10 µM
- relative viability EC50 (Caco-2 [12]): > 10 µM

SMILES: C[C@@H](c1nc(-c2ccc(C#N)cc2)cs1)[C@](O)(Cn1cncn1)c1ccc(F)cc1F [ravuconazole]
- cell viability (Vero E6 [2]; 1 nM): 96.3%
- cell viability (Vero E6 [2]; 10 nM): 95.9%
- cell viability (Vero E6 [2]; 100 nM): 101%
- cell viability (Vero E6 [2]; 1000 nM): 102%
- cell viability (Vero E6 [2]; 10000 nM): 98.6%
- cell viability (U2OS [3]; 1 nM): 101%
- cell viability (U2OS [3]; 10 nM): 105%
- cell viability (U2OS [3]; 100 nM): 95.9%
- cell viability (U2OS [3]; 1000 nM): 100%
- cell viability (U2OS [3]; 10000 nM): 85.9%
- cell viability (Caco-2 [4]; 1 nM): 106%
- cell viability (Caco-2 [4]; 10 nM): 103%
- cell viability (Caco-2 [4]; 100 nM): 99.3%
- cell viability (Caco-2 [4]; 1000 nM): 84%
- cell viability (Caco-2 [4]; 10000 nM): 59.3%
- cell viability (HepG2 [13]; 1 nM): 97.1%
- cell viability (HepG2 [13]; 10 nM): 99.3%
- cell viability (HepG2 [13]; 100 nM): 84.8%
- cell viability (HepG2 [13]; 1000 nM): 99.9%
- cell viability (HepG2 [13]; 10000 nM): 49.1%
- drug sensitivity score (Vero E6 [6]): 0
- drug sensitivity score (U2OS [7]): 0.2
- drug sensitivity score (Caco-2 [8]): 4.2
- drug sensitivity score (HepG2 [14]): 2.7
- relative viability EC50 (Vero E6 [10]): > 10 µM
- relative viability EC50 (U2OS [11]): > 10 µM
- relative viability EC50 (HepG2 [15]): 3.14 µM

SMILES: O=C(O)C(O)Cc1ccc(O)c(O)c1 (stereo not given) [sodium-danshensu]
- cell viability (Vero E6 [2]; 1 nM): 101%
- cell viability (Vero E6 [2]; 10 nM): 102%
- cell viability (Vero E6 [2]; 100 nM): 103%
- cell viability (Vero E6 [2]; 1000 nM): 95.7%
- cell viability (Vero E6 [2]; 10000 nM): 97.6%
- cell viability (U2OS [3]; 1 nM): 95%
- cell viability (U2OS [3]; 10 nM): 96.2%
- cell viability (U2OS [3]; 100 nM): 96.3%
- cell viability (U2OS [3]; 1000 nM): 94.8%
- cell viability (U2OS [3]; 10000 nM): 87.7%
- cell viability (HepG2 [13]; 1 nM): 99.5%
- cell viability (HepG2 [13]; 10 nM): 121%
- cell viability (HepG2 [13]; 100 nM): 99.8%
- cell viability (HepG2 [13]; 1000 nM): 92%
- cell viability (HepG2 [13]; 10000 nM): 104%
- drug sensitivity score (Vero E6 [6]): 0
- drug sensitivity score (U2OS [7]): 0
- drug sensitivity score (HepG2 [14]): 0
- relative viability EC50 (Vero E6 [10]): > 10 µM
- relative viability EC50 (U2OS [11]): > 10 µM
- relative viability EC50 (HepG2 [15]): > 10 µM

SMILES: C#CC1(OCC(O)CN2CCN(c3cccc(C(F)(F)F)c3)CC2)CCCCC1 (stereo not given) [terciprazine]
- cell viability (Vero E6 [2]; 1 nM): 106%
- cell viability (Vero E6 [2]; 10 nM): 93.6%
- cell viability (Vero E6 [2]; 100 nM): 104%
- cell viability (Vero E6 [2]; 1000 nM): 99.4%
- cell viability (Vero E6 [2]; 10000 nM): 87%
- cell viability (U2OS [3]; 1 nM): 100%
- cell viability (U2OS [3]; 10 nM): 98.6%
- cell viability (U2OS [3]; 100 nM): 99%
- cell viability (U2OS [3]; 1000 nM): 96.8%
- cell viability (U2OS [3]; 10000 nM): 95%
- cell viability (Caco-2 [4]; 1 nM): 102%
- cell viability (Caco-2 [4]; 10 nM): 92.2%
- cell viability (Caco-2 [4]; 100 nM): 101%
- cell viability (Caco-2 [4]; 1000 nM): 86.1%
- cell viability (Caco-2 [4]; 10000 nM): 87%
- cell viability (HepG2 [13]; 1 nM): 96%
- cell viability (HepG2 [13]; 10 nM): 110%
- cell viability (HepG2 [13]; 100 nM): 110%
- cell viability (HepG2 [13]; 1000 nM): 91.1%
- cell viability (HepG2 [13]; 10000 nM): 90.9%
- drug sensitivity score (Vero E6 [6]): 0.1
- drug sensitivity score (U2OS [7]): 0
- drug sensitivity score (Caco-2 [8]): 1
- drug sensitivity score (HepG2 [14]): 0
- relative viability EC50 (Vero E6 [10]): > 10 µM
- relative viability EC50 (U2OS [11]): > 10 µM
- relative viability EC50 (Caco-2 [12]): > 10 µM
- relative viability EC50 (HepG2 [15]): > 10 µM

SMILES: Cc1cccc(Nc2ccncc2S(=O)(=O)NC(=O)NC(C)C)c1 [torasemide]
- cell viability (Calu-3 [1]; 1 nM): 100%
- cell viability (Calu-3 [1]; 10 nM): 100%
- cell viability (Calu-3 [1]; 100 nM): 96.5%
- cell viability (Calu-3 [1]; 1000 nM): 110%
- cell viability (Calu-3 [1]; 10000 nM): 85.6%
- cell viability (Vero E6 [2]; 1 nM): 105%
- cell viability (Vero E6 [2]; 10 nM): 101%
- cell viability (Vero E6 [2]; 100 nM): 102%
- cell viability (Vero E6 [2]; 1000 nM): 99.2%
- cell viability (Vero E6 [2]; 10000 nM): 103%
- cell viability (Caco-2 [4]; 1 nM): 102%
- cell viability (Caco-2 [4]; 10 nM): 112%
- cell viability (Caco-2 [4]; 100 nM): 96.7%
- cell viability (Caco-2 [4]; 1000 nM): 103%
- cell viability (Caco-2 [4]; 10000 nM): 96.2%
- drug sensitivity score (Calu-3 [5]): 0.1
- drug sensitivity score (Vero E6 [6]): 0
- drug sensitivity score (Caco-2 [8]): 0
- relative viability EC50 (Calu-3 [9]): > 10 µM
- relative viability EC50 (Vero E6 [10]): > 10 µM
- relative viability EC50 (Caco-2 [12]): > 10 µM
